# Data as given in US20230233439A1, “METHOD FOR COSMETIC TREATMENT BY COMBINED ILLUMINATION AND APPLICATION OF A COMPOSITION COMPRISING NIACINAMIDE, AND ASSOCIATED DEVICE” (LIGHTINDERM, priority 2020, published 2023).
# Tests used:
# Type in all cases: cell-based
# interleukin-6 = test: Protection of UVA/UVB-irradiated keratinocytes measured by interleukin-6 production
# Protocol: (§1) The inflammation of the cells and the measurement of the antiaging effect are based on the irradiation of a cell culture with a combination of UVA and UVB. […] Pure niacinamide at a concentration of 0.4 mg/mL or 1.2 mg/mL is used. For the treatments inducing illumination at 660 nm, 10 different programs are evaluated. These programs are defined in Table 1 below. [table] […] Free radicals are reactive and induce an inflammatory cascade characterized by the production of proinflammatory proteins (p53, pro-opiomelanocortin (POMC), interleukins, etc.) which can be measured in the cell supernatant. […] According to the protocol, at T+48 h, the cell supernatant is collected and the concentrations of interleukins 6 and 8 are measured and compared to the concentrations of interleukins 6 and 8 produced by cells exposed to UV and not subjected to any of the three abovementioned treatments (UV control) and to untreated and non-irradiated cells (non-irradiated control). A degree of protection of the treated cells relative to the UV control is evaluated according to the following formula: Non-irradiated cells show 100% protection and irradiated cells show 0% protection. […]
# interleukin-8 = test: Protection of UVA/UVB-irradiated keratinocytes measured by interleukin-8 production
# Protocol: as §1
# procollagen-1 = test: Procollagen-1 production by fibroblasts exposed to UVA and UVB; conditions: niacinamide 0.4 mg/ml combined with illumination at 660 nm, programs 3 and 8; compared with niacinamide alone and with illumination alone; FIG. 3
# Protocol: The inflammation of the cells and the measurement of the antiaging effect are based on the irradiation of a cell culture with a combination of UVA and UVB. […] Pure niacinamide at a concentration of 0.4 mg/mL or 1.2 mg/mL is used. Attention is now focused on skin aging, known as “photoaging”, induced by UV exposure. One of the parameters of cutaneous aging observed clinically is the appearance of wrinkles associated in part with a decrease in collagen production by the cells of the dermis, the fibroblasts. […] The production of procollagen-1 produced by fibroblasts is measured in the supernatants obtained from the previously defined protocol in which the cells were illuminated either without any other treatment or in combination with niacinamide at a concentration of 0.4 mg/ml, and compared with treatment with niacinamide alone at a concentration of 0.4 mg/ml. The results are shown in FIG. 3 for illumination programs 3 and 8.
# [1] = niacinamide 1.2 mg/ml combined with illumination at 660 nm, all illumination programs
smiles,measurement,setting,value
NC(=O)c1cccnc1 [niacinamide],protection of the skin cells (interleukin-6) compared with illumination alone at 660 nm,interleukin-6; [1],much greater protection
same,protection of cells exposed to UV (interleukin-6 concentration),"interleukin-6; niacinamide 1.2 mg/ml combined with pulsed illumination at 660 nm, all 10 programs, relative to UV-exposed cells and/or niacinamide alone, FIG. 1",beneficial effect
same,protection of the skin cells (interleukin-8) compared with illumination alone at 660 nm,interleukin-8; [1],much greater protection
same,protection of cells exposed to UV (interleukin-8 concentration),"interleukin-8; niacinamide 1.2 mg/ml combined with pulsed illumination at 660 nm, all 10 programs, relative to UV-exposed cells and/or niacinamide alone, effects particularly visible, FIG. 2",beneficial effect
same,production of procollagen-1,procollagen-1,Increased production
